The record followed here is PubChem BioAssay (NCI).

Several values for one entry are separate records, joined by “and”; a condition that tells them apart may be missing. Equal entries are not always repeated.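 Grown in 96-well plates, cells were treated for 48 hours with each compound at five concentrations. Insufficient inhibition: endpoint recorded as highest concentration tested. GI50 is the concentration that inhibits growth by half. TGI: concentration producing complete growth inhibition.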

Holding throughout (assay): inhibition of tumour cell growth, NCI panel, 48 h
Experiment [1] relates to UACC-62 melanoma.
Experiment [2] concerns COLO 205 colon.
Experiment [3] relates to HCT-116 colon.
Experiment [4] concerns NCI-H460 lung.
Experiment [5] relates to SF-295 CNS.
Experiment [6] has as its system 786-0 renal.
Experiment [7] deals with UO-31 renal.
In experiment [8] the test system is U251 CNS.
Experiment [9] has as its system A549 NSCLC.
Experiment [10] deals with HS 578T breast.

With `CN(C)CCn1c(=O)c2ccc(NCCNCCO)c3c(=O)c4cc(O)ccc4n(c1=O)c23`, the TGI in [1] came out at 4.23 µM; in experiment [2], 4.6 µM; in experiment [3], 3.15 µM; in [4], 4.51 µM; in experiment [5] it was 21.1 µM; in [6], 13.2 µM. Also, the TGI in experiment [7] was 28.2 µM; in [8], 8.27 µM; in experiment [9], 33.9 µM; in [10], 11.4 µM.

For the compound `C/C(=C/CC[C@](C)(OC1OC(CO)C(O)C(O)C1O)[C@H]1CC[C@]2(C)[C@@H]1CC[C@@H]1[C@@]3(C)CC[C@H](O)C(C)(C)[C@@H]3C[C@H](O)[C@]12C)CO` (some centres not stated), the TGI in [1] was 58.3 µM; in experiment [2] it was 41 µM; in experiment [3] it was 42.7 µM; in experiment [4], 48.9 µM; in [5] it was 35.1 µM; in experiment [6], 61.2 µM. Besides, the TGI was over 100 µM in [7], 28.5 µM in experiment [8], over 100 µM in experiment [9] and 55.3 µM in experiment [10].

Regarding `CC(=O)Oc1ccc2c(c1)c1c(OC(C)=O)c3ccccc3c(OC(C)=O)c1n2Cc1cccc(C)c1`, the TGI in [1] was over 100 µM; in [2], over 100 µM; in [3], over 100 µM; in [4], over 100 µM; in [5], 72.3 µM; in experiment [6] it was over 100 µM. In addition, the TGI is over 100 µM in experiment [7], over 100 µM in [8], over 100 µM in experiment [9] and 78.3 µM in experiment [10].

Turning to `CCCCCCCC(CC(=O)O)OC(=O)CC(CCCCCCC)OC1OC(C)C(O)C(O)C1OC1OC(C)C(O)C(O)C1O` (configuration not stated), the TGI in experiment [1], in [2], in experiment [3], in experiment [4], in experiment [5] and in experiment [6] was over 100 µM throughout. For the same compound, the TGI in experiment [7], in experiment [8], in experiment [9] and in experiment [10] was over 100 µM each time.

In the case of `c1ccc(C/C(=N\Nc2nc3ccccc3o2)c2ccccn2)cc1`, the TGI in experiment [1] amounted to 2.49 µM; in experiment [2], 0.0114 µM; in experiment [3], 3.68 µM; in [4], 2.27 µM; in experiment [5], 3.25 µM; in experiment [6], 0.136 µM. Besides, the TGI in experiment [7] was 4.55 µM; in experiment [8], 5.32 µM; in experiment [9] it was over 34.6 µM; in experiment [10], 29 µM.

With `COc1cc(O)c2c(c1)C(O)C(O)CC1OC1C(=O)/C=C/CC(C)OC2=O` (configuration not stated), the TGI turned out to be 3.2 µM in [1]; 16.1 µM in experiment [2]; 12.2 µM in experiment [3]; 25.6 µM in experiment [4]; 46.6 µM in [5]; 13.8 µM in [6]. In addition, the TGI in experiment [7] was 17.1 µM; in [8], 25 µM; in experiment [9], 67.8 µM; in experiment [10], 59.5 µM.

For the compound `CN1C/C(=C\c2ccccc2[N+](=O)[O-])C(=O)/C(=C/c2ccccc2[N+](=O)[O-])C1`, the TGI was 2.13 µM and 3.79 µM in [1]; 0.865 µM and 0.387 µM in [2]; 0.546 µM and 0.415 µM in experiment [3]; 4.56 µM and 8.89 µM in experiment [4]; 13.7 µM and 7 µM in [5]; 1.01 µM and 0.467 µM in experiment [6]. Moreover, the TGI is 1.28 µM and 1.12 µM in [7]; 3.83 µM and 3.86 µM in experiment [8]; 14.4 µM and 12.9 µM in experiment [9]; 24 µM and 3.42 µM in [10]. Moreover, the GI50 in [5] was 5.62 µM and 2.46 µM; in [10], 1.97 µM and 0.759 µM.

As to `O=C(O)CCCc1nc2c(n1-c1ccccc1)C(=O)c1ccccc1C2=O`, the TGI in [1], in experiment [2], in [3], in experiment [4], in experiment [5] and in experiment [6] was over 100 µM each time. In addition, the TGI in experiment [7], in [8], in experiment [9] and in [10] was over 100 µM throughout.

Take `COC(=O)CNC(=O)/C=C/[C@H](O[Si](C)(C)C(C)(C)C)[C@H](/C=C/C(=O)NCC(=O)OC)O[Si](C)(C)C(C)(C)C`: the TGI in experiment [1], in [2], in [3], in experiment [4], in [5] and in experiment [6] was over 25 µM throughout. The TGI in experiment [7], in [8], in [9] and in experiment [10] was over 25 µM in each case.

In the case of `CC(C)[Si]1(C(C)C)OCC2OC(n3cnc4c(N)ncnc43)C(N)C2O[Si](C(C)C)(C(C)C)O1` (configuration not stated), the TGI in experiment [1] is 27.4 µM; in [2], 23.9 µM; in [3], 16.9 µM; in [4], 27.5 µM; in experiment [5], 21.5 µM; in [6] it was 28.3 µM. In addition, the TGI in experiment [7] is 27.6 µM; in [8], 35.8 µM; in experiment [9], 49.5 µM; in experiment [10] it was 44.5 µM.

With `CSc1s[s+]c(SC)c1-c1ccccc1`, the TGI is 28.3 µM in experiment [1]; 32.4 µM in experiment [2]; 29.5 µM in experiment [3]; over 100 µM in [4]; 36.9 µM in experiment [5]; 28.1 µM in experiment [6]. Also, the TGI was 46.3 µM in [7], 41.1 µM in experiment [8], over 100 µM in experiment [9] and 86.9 µM in [10].

In the case of `COC(=O)c1ccc(OCc2ccc3nc(-c4ccccc4)c(Cl)nc3c2)cc1`, the TGI was over 100 µM in [1]; over 100 µM in [2]; over 100 µM in [3]; over 100 µM in experiment [4]; over 100 µM in experiment [5]; 48.9 µM in experiment [6]. In addition, the TGI in experiment [7] was over 100 µM; in [8], over 100 µM; in experiment [9] it was over 100 µM; in experiment [10], 99.4 µM.

On to `CCCCC(=C=C1CCCCC1O)C1CCCN1C(=O)OC(C)(C)C` (configuration not stated), for which the TGI in [1] is 23.4 µM; in [2], 43.8 µM; in experiment [3] it was 27.3 µM; in experiment [4] it was 31 µM; in [5], 28 µM; in experiment [6] it was 29.6 µM. The TGI in experiment [7] is 35.8 µM; in experiment [8], 29.4 µM; in experiment [9], 29.3 µM; in experiment [10], 41 µM.

On to `CN(C)CCNc1nc2ccccc2c2c1C(=O)c1ccccc1-2`, for which the TGI in [1] came out at 0.437 µM; in experiment [2], 2.23 µM; in experiment [3], 1.38 µM; in experiment [4], 0.415 µM; in experiment [5] it was 3.31 µM; in experiment [6], 3.66 µM. Moreover, the TGI in experiment [7] came to 3.17 µM; in experiment [8], 2.83 µM; in experiment [9], 2.96 µM; in [10], 24.3 µM.

With `Cc1ccc(C2=Nn3c(nc4sc(-c5ccccc5)cc4c3=O)SC2)cc1`, the TGI in [1], in [2], in [3], in [4], in experiment [5] and in experiment [6] was over 100 µM each time. Besides, the TGI in [7], in [8], in experiment [9] and in experiment [10] was over 100 µM in each case.

For the compound `COc1cccc(N2N=C3c4ccccc4-n4c(nc5ccccc54)C3C2N)c1` (configuration not stated), the TGI in [1], in experiment [2], in experiment [3], in [4], in [5] and in experiment [6] was over 100 µM each time. Also, the TGI in [7], in [8], in experiment [9] and in [10] was over 100 µM throughout.

With `BrCC[P+](c1ccccc1)(c1ccccc1)c1ccccc1`, the TGI is 21.9 µM in [1]; 17.6 µM in [2]; 8.38 µM in experiment [3]; 73.3 µM in [4]; over 100 µM in experiment [5]; 10.4 µM in experiment [6]. In addition, the TGI in experiment [7] is 22.8 µM; in experiment [8], 13.2 µM; in experiment [9], over 100 µM; in [10] it was 50.5 µM.

Regarding `COC1=CC2(C=CC1=O)CCN=c1c(O)c3c(c(O)c12)=NC=N3` (configuration not stated), the TGI in experiment [1], in experiment [2], in [3], in experiment [4], in experiment [5] and in [6] was over 100 µM each time. In addition, the TGI in [7], in [8], in experiment [9] and in experiment [10] was over 100 µM each time.

Consider `CSC1(SC)CCCCCCCCCCC1`, for which the TGI was over 100 µM in experiment [1]; 33.9 µM in [2]; 31.4 µM in [3]; over 100 µM in experiment [4]; 97.1 µM in experiment [5]; over 100 µM in experiment [6]. In addition, the TGI in experiment [7], in experiment [8], in experiment [9] and in experiment [10] was over 100 µM in each case.

Turning to `O=C(O)CNC(=O)c1cccc2c(=O)c3ccccc3[nH]c12`, the TGI in [1], in [2], in experiment [3], in experiment [4], in experiment [5] and in experiment [6] was over 100 µM in each case. The TGI in experiment [7], in [8], in [9] and in [10] was over 100 µM in each case.

With `CC(=O)Nc1ncc2c(n1)-c1ccccc1OC2`, the TGI in [1], in [2], in experiment [3], in experiment [4], in experiment [5] and in experiment [6] was over 100 µM in each case. Also, the TGI was over 100 µM in experiment [7], over 100 µM in [8], over 100 µM in experiment [9] and 94.4 µM in [10].

Take `O=C(O)c1ccccc1-c1ccccc1C(=O)c1ccccc1`: the TGI in experiment [1], in experiment [2], in experiment [3], in [4], in experiment [5] and in experiment [6] was over 100 µM throughout. The TGI in [7], in [8], in experiment [9] and in [10] was over 100 µM each time.
